Here are results for 2 molecules from patent US12458616B2, “Levodopa dosing regimen” (Amneal Pharmaceuticals, LLC, priority 2020, dated 2025).

SMILES strings stand for the structures. Where two headings read alike, the source gives them in different places.

Data set [1] can be described thus: Example 12 pharmacokinetics in healthy subjects: fed, sprinkled on applesauce, fasted. The class given is in vivo, human. Particulars: Example 7 capsule 350 mg LD/87.5 mg CD; for Tmax: median (min-max); for AUC(0-t): hour 0 to 24 hours; for Cmax: po, single oral dose. The protocol:
The dosage forms described in Example 7 were administered to 27 healthy male and female subjects between the ages of 18 and 55 with a body weight of at least 55 kg and body mass index of 18.5 to 30.0 kg/m^2 in a single site, open label, single dose, 3-treatment, 3-period, crossover study. The subjects were fasted overnight for at least 10 hours and received a single dose of 350 mg LD and 87.5 CD for each treatment separated by a 6 to 7 day washout period.
No additional food was allowed for at least 4 hours post dose.
Treatment B comprised the oral administration of one capsule prepared in accordance with Example 7 containing 350 mg LD and 87.5 mg CD wherein the contents of the capsule were sprinkled onto 1 tablespoon of applesauce. No additional food was allowed for at least 4 hours post dose.
Treatment C comprised the oral administration of one capsule prepared in accordance with Example 7 containing 350 mg LD and 87.5 mg CD with 240 mL of water. No food was allowed for at least 4 hours post dose.
For Treatments A and C the subjects were instructed to swallow the capsule intact and not to chew, divide or crush the tablet.
For Treatment B, the subjects were instructed to consume all the applesauce without crushing or chewing the beads.
Whole blood samples were taken prior to dosing and at 0.5, 1, 1.5, 2, 2.5, 3, 4, 5, 6, 7, 8, 10, 12, 16 and 24 hours post dose. The plasma samples were analyzed for concentrations of CD and LD by a validated liquid chromatography-tandem mass spectrometry (LC-MS/MS) method. Peak plasma (Cmax), area under the plasma concentration-time curve (AUCt and AUC∞), and time to maximum concentration (Tmax) for LD and CD were evaluated. The mean pharmacokinetic parameters are showing in the following table and in FIGS. 20 and 21.

The conditions of data set [2]: cited from earlier work.
[3] abbreviates: both sexes, human, plasma, oral, Fasted, mean ± SD.
Setting [4] is: both sexes, human, plasma, oral, Fasted, read-out: Tmax.
The mark [5] stands for this setting: both sexes, human, plasma, oral, Fed, mean ± SD.
[6] abbreviates: both sexes, human, plasma, oral, Fed, read-out: Tmax.
Where [7] appears, read: both sexes, human, plasma, oral, Sprinkled on Applesauce, mean ± SD.
The mark [8] stands for this setting: both sexes, human, plasma, Fasted, mean ± SD.
Where [9] appears, read: both sexes, human, plasma, Fed (high-fat breakfast), mean ± SD.
Where [10] appears, read: both sexes, human, plasma, Sprinkled on Applesauce, mean ± SD.

As usually defined, the half-life is the time needed for the level to fall by half in the phase considered. A higher half-life goes with slow loss. The AUC(0-t) is exposure summed from dosing to a finite time, without extrapolation to infinity. Lower therefore signals less exposure. What is called Cmax is the peak of the concentration-time curve. With `C[C@@](Cc1ccc(O)c(O)c1)(NN)C(=O)O` [Carbidopa], the half-life is 3.9 ± 0.56 h in data set [1] (setting [3]), 3.86 ± 0.78 h in data set [1] (setting [5]) and 3.95 ± 0.67 h in data set [1] (setting [7]). Besides, the Tmax in data set [1] (setting [4]) worked out at 3 h; in data set [1] (setting [6]), 4 h; in data set [1] (both sexes, human, plasma, oral, Sprinkled on Applesauce, read-out: Tmax), 2.5 h. Also, the AUC(0-t) amounted to 2180 ± 906 ng·h/mL in data set [1] (setting [3]), 751 ± 205 ng·h/mL in data set [1] (setting [5]) and 1910 ± 618 ng·h/mL in data set [1] (setting [7]). The Cmax in data set [1] (setting [8]) turned out to be 404 ± 157 ng/mL; in data set [1] (setting [9]), 141 ± 41.1 ng/mL; in data set [1] (setting [10]) it was 339 ± 91.8 ng/mL.
Turning to `N[C@@H](Cc1ccc(O)c(O)c1)C(=O)O` [LD, levodopa], in data set [1] (Fed, mean ± SD), the T1/2 stood at 1.79 ± 0.3 h. For the same molecule, the Tmax in data set [1] (Sprinkled on Applesauce) is 0.5 (0.5-5.0) h; in data set [1] (setting [4]) it was 2 h; in data set [1] (setting [6]), 4 h. In addition, the half-life in data set [1] (setting [3]) was 2 ± 0.3 h; in data set [1] (setting [7]) it was 2.02 ± 0.31 h. For the same molecule, the AUC(0-t) in data set [1] (setting [3]) was determined as 9120 ± 2150 ng·h/mL; in data set [1] (setting [5]), 10600 ± 1430 ng·h/mL; in data set [1] (setting [7]), 8330 ± 1960 ng·h/mL. Also, the Cmax in data set [1] (setting [8]) was found to be 1830 ± 385 ng/mL; in data set [1] (setting [9]), 2190 ± 473 ng/mL; in data set [1] (setting [10]) it was 1630 ± 409 ng/mL. The plasma half-life entry is recorded as “about 1.5 hours” in data set [2] (orally administered with CD) and “about 50 minutes” in data set [2] (orally administered without CD).
